# How the values were obtained:
# [1] = target: T1, Protein-glutamine gamma-glutamyltransferase (Homo sapiens, UniProt P21980); assay: Inhibition of human TGM2
# T1 sequence (P21980 whole entry): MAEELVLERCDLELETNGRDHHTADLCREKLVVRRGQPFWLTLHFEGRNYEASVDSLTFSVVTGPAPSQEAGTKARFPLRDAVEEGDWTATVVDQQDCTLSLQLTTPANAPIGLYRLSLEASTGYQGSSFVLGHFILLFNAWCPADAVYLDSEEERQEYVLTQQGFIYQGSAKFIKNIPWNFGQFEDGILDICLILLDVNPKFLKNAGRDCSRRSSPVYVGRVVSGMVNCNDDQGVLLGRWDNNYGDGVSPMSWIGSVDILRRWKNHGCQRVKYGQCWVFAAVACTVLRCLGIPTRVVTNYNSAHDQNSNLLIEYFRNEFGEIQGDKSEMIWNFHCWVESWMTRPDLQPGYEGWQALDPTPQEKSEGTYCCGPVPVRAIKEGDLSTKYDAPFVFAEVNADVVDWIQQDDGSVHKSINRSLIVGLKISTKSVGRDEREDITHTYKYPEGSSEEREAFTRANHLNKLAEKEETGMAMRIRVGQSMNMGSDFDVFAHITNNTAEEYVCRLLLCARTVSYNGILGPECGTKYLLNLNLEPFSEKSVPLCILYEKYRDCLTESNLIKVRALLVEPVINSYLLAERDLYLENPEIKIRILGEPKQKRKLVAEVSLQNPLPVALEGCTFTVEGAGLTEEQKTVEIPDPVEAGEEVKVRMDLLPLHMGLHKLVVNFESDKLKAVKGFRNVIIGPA
# [2] = Half life in mouse plasma at 1 uM; type: ADME, cell-free
# [3] = target: T2, Protein-glutamine gamma-glutamyltransferase K (Homo sapiens, UniProt P22735); assay: Inhibition of human TGM1
# T2 sequence (P22735 whole entry): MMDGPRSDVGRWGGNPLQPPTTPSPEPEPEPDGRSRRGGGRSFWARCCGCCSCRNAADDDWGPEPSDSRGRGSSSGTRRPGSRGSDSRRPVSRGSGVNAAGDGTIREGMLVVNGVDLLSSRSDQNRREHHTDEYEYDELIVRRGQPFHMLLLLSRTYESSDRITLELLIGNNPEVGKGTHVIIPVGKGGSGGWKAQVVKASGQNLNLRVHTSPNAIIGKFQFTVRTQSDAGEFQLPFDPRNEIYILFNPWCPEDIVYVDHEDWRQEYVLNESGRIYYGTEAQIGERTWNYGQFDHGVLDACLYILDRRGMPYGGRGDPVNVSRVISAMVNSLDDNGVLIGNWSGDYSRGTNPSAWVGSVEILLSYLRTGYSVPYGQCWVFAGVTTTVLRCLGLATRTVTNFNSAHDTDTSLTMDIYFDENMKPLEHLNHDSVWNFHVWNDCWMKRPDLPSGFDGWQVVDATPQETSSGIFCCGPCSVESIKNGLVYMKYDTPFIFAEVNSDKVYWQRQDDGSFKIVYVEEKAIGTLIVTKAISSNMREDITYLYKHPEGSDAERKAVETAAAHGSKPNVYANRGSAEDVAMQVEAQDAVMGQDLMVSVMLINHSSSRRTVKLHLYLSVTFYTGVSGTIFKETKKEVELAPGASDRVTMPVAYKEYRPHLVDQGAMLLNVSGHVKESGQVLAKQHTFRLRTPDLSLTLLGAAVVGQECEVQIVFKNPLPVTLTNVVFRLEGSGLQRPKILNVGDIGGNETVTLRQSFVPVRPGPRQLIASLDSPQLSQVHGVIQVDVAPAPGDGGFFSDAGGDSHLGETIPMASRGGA
# [4] = target: T3, Protein-glutamine gamma-glutamyltransferase E (Homo sapiens, UniProt Q08188); assay: Inhibition of human TGM3
# T3 sequence (Q08188 whole entry): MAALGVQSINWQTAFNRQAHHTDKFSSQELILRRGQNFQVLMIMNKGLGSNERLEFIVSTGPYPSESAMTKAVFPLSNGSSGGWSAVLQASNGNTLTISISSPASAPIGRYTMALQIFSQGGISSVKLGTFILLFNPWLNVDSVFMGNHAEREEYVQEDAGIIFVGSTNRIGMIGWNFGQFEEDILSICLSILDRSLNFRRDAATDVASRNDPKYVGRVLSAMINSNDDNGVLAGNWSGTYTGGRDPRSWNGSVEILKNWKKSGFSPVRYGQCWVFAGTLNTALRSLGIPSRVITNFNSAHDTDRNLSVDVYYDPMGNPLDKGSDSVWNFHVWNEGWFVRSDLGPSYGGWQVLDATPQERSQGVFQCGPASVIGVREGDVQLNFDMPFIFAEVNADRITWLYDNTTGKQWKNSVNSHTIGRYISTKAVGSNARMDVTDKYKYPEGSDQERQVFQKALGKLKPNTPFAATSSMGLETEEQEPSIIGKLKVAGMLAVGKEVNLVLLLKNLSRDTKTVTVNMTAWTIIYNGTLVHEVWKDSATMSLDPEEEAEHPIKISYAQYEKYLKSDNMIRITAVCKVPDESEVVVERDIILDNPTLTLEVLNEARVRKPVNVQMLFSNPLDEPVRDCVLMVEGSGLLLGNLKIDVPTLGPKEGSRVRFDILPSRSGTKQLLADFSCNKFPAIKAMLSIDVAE
# [5] = target: T4, Protein-glutamine gamma-glutamyltransferase 6 (Homo sapiens, UniProt O95932); assay: Inhibition of human TGM6
# T4 sequence (O95932 whole entry): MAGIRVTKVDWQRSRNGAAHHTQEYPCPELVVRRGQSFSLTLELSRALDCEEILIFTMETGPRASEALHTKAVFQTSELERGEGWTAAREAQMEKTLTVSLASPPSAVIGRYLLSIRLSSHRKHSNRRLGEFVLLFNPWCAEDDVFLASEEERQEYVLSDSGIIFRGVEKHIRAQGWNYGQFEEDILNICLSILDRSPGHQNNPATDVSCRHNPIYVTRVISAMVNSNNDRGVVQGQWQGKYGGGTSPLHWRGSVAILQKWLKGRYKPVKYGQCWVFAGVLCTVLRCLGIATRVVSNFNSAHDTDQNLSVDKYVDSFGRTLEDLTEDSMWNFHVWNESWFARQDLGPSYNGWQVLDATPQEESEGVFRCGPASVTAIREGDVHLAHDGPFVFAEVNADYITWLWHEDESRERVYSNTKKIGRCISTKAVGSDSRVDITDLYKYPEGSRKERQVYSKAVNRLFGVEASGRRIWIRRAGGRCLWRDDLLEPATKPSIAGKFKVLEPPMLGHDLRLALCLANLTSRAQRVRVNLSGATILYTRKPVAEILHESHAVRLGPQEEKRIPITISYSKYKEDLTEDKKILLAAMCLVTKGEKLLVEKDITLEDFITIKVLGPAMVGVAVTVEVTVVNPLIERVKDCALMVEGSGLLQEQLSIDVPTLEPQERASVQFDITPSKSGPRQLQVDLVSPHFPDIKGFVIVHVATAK
# [6] = target: T5, Coagulation factor XIII A chain (Homo sapiens, UniProt P00488); assay: Inhibition of human factor-13A
# T5 sequence (P00488 whole entry): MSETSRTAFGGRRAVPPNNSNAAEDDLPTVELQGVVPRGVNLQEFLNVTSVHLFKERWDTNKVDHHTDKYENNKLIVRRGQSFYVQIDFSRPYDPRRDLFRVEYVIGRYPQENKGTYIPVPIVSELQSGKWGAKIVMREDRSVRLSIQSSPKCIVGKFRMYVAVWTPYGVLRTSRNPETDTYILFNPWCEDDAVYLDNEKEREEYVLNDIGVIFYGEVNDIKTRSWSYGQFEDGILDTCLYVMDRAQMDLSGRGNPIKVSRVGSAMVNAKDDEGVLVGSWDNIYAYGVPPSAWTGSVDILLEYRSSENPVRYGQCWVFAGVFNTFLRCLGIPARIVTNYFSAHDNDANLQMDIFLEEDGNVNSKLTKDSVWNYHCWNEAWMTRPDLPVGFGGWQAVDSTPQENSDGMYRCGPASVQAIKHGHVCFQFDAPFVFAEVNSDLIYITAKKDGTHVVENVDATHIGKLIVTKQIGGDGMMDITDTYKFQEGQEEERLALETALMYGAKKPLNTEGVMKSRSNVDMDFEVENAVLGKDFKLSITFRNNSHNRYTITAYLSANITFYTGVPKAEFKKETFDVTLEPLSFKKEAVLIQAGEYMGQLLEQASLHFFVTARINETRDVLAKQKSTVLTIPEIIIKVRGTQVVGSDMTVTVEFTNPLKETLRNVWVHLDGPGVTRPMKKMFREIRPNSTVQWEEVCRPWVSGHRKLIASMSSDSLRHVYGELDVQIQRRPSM
# [7] = Half life in human plasma at 1 uM; type: ADME, cell-free
# [8] = Chemical stability of the compound in phosphate buffer at pH 7.4 assessed as GSH adduct formation after 120 hrs; type: physicochemical; details: pH 7.4, 120 h
# [9] = Kinetic solubility of the compound in phosphate buffered saline at pH 7.4; type: physicochemical; details: read-out: Kinetic_solubility
# [10] = Intrinsic clearance in mouse liver microsomes at 1 uM; type: ADME, Microsome; details: read-out: CLH
# [11] = Intrinsic clearance in human liver microsomes at 1 uM; type: ADME, Microsome; details: read-out: CLH
# [12] = Apparent permeability from apical to basolateral side of wild type MDCK cells; type: ADME, cell-based, Canis lupus familiaris; details: dog
# [13] = Efflux ratio of permeability in wild type MDCK cells; type: ADME, cell-based, Canis lupus familiaris; details: dog
# [14] = target: T6, Protein-glutamine gamma-glutamyltransferase 2 (Mus musculus, UniProt P21981); assay: Inhibition of mouse TGM2
# T6 sequence (P21981 whole entry): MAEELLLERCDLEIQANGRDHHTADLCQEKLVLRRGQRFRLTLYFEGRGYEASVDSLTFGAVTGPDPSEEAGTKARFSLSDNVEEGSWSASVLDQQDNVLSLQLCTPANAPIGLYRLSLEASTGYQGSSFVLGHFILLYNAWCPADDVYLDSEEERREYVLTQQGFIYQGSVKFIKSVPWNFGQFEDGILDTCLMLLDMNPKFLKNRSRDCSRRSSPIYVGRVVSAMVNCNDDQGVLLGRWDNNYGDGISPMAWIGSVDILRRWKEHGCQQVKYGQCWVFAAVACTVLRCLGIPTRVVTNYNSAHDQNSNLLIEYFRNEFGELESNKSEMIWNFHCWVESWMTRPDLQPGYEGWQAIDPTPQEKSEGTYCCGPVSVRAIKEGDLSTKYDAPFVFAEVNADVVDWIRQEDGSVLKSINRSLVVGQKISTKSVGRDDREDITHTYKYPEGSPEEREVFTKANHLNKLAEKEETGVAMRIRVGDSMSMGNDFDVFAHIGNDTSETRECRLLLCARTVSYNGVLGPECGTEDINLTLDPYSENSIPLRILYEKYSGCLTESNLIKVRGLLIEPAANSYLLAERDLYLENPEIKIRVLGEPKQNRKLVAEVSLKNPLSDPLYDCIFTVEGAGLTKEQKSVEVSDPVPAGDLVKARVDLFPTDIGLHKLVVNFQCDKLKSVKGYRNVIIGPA
Structure (SMILES),IC50 [1] [nM],half-life at 1 µM [2] [h],half-life at 1 µM [7] [h],further results
C=CC(=O)NC1CCN(S(=O)(=O)c2ccc(C(=O)NCCc3ccc(OC)cc3)cc2)CC1,–,> 6,> 6,IC50 [3]: 1200 nM; IC50 [5]: 34000 nM; IC50 [6]: 6400 nM; IC50 [14]: 55 nM
C=CC(=O)NC1CCN(S(=O)(=O)c2ccc(C(=O)NCCc3ccc(-c4ccccc4)cc3)cc2)CC1,57000,> 6,> 6,–
C=CC(=O)NC1CCN(S(=O)(=O)c2ccc(C(=O)NCCc3ccc4ccccc4c3)cc2)CC1,280,> 6,> 6,–
C=CC(=O)NC1CCN(S(=O)(=O)c2ccc(C(=O)NCCc3ccc4cccnc4c3)cc2)CC1,310,> 6,> 6,–
C=CC(=O)NC1CCN(S(=O)(=O)c2ccc(C(=O)NCCc3ccc(OC)c(OC)c3)cc2)CC1,460,> 6,> 6,–
C=CC(=O)NC1CCN(S(=O)(=O)c2ccc(C(=O)NCCc3cccc4c3OCO4)cc2)CC1,280,> 6,> 6,–
C=CC(=O)NC1CCN(C(=O)c2ccc(NC(=O)OCc3ccccc3)cc2)CC1,8900,> 6,> 6,–
C=CC(=O)NC1CCN(Cc2ccc(NC(=O)OCc3ccccc3)cc2)CC1,1600,> 6,> 6,–
C=CC(=O)NC1CCN(S(=O)(=O)c2ccc(C(=O)N[C@@H]3C[C@H]3c3ccccc3)cc2)CC1 (racemic),410,> 6,> 6,–

# Second part, led by results:
IC50 [1] [nM],half-life at 1 µM [2] [h],half-life at 1 µM [7] [h],Structure (SMILES),further results
280,4,> 6,C=CC(=O)NC1CCN(S(=O)(=O)c2ccc(NC(=O)OCc3ccccc3)cc2)CC1,IC50 [3]: 910 nM; IC50 [4]: > 80000 nM; IC50 [5]: 8900 nM; IC50 [6]: 3600 nM; Stability [8]: Stable
180,> 6,> 6,C=CC(=O)NC1CCN(S(=O)(=O)c2ccc(C(=O)NCCc3ccccc3)cc2)CC1,solubility kinetic [9]: < 10 µg/mL; microsomal CLint at 1 µM [10]: 99 µL/min/mg; microsomal CLint at 1 µM [11]: 595 µL/min/mg; Papp A→B [12]: 8.3 ×10⁻⁶ cm/s; efflux ratio [13]: 44
230,> 6,> 6,C=CC(=O)NC1CCN(S(=O)(=O)c2ccc(C(=O)NCCc3ccccc3OC)cc2)CC1,–
260,> 6,> 6,C=CC(=O)NC1CCN(S(=O)(=O)c2ccc(C(=O)NCCc3cccc4c3OCC4)cc2)CC1,–
170,> 6,> 6,C=CC(=O)NC1CCN(S(=O)(=O)c2ccc(C(=O)NCCc3cccc(Cl)c3)cc2)CC1,Stability [8]: Stable
180,> 6,> 6,C=CC(=O)NC1CCN(S(=O)(=O)c2ccc(C(=O)NCCc3ccc(C)c(C)c3)cc2)CC1,–

# From ChEMBL document CHEMBL2150866, “Irreversible 4-Aminopiperidine Transglutaminase 2 Inhibitors for Huntington's Disease” (ACS Med Chem Lett, 2012)
